Laboratory results from patent US7718767B2, “3-ether and 3-thioether substituted cyclosporin derivatives for the treatment and prevention of hepatitis C infection” (Scynexis, Inc., priority 2006, dated 2010).
Counter-ions that a name gives are not always drawn.

Columns and labels:
[1] = tested on: HCV RNA replicon ET; test: HCV RNA replicon luciferase reporter assay, antiviral activity; assay type: cell-based; details: ET replicon cells, 72 h, LUC activity; for EC50: concentration reducing viral replication by 50%; for EC90: concentration reducing viral replication by 90%
[2] = tested on: HIV-1IIIB; test: HIV MTS cytoprotection assay in CEM-SS cells; assay type: cell-based, human immunodeficiency virus-1; details: 6 days post-infection, concentration inhibiting virus replication by 50%
[3] = tested on: human hepatoma cell line ET; test: Cytotoxicity in the replicon cell line, colorimetric assay of cell numbers; details: ET cells, 72 h; for IC50: read-out: Cytotoxicity IC50, concentration inhibiting cell viability by 50%; for IC90: read-out: Cytotoxicity IC90, concentration inhibiting cell viability by 90%
Text: Compounds were examined in the human hepatoma cell line ET (lub ubi heo/ET), a HCV RNA replicon containing a stable luciferase (LUC) reporter. The HCV RNA replicon ET contains the 5′ end of HCV (with the HCV Internal Ribosome Entry Site (IRES) and the first few amino acids of the HCV core protein) which drives the production of a firefly luciferase (LUC), ubiquitin, and neomycin phosphotransferase (NeoR) fusion protein. Ubiquitin cleavage releases the LUC and NeoR proteins. The EMCV IRES element controls the translation of the HCV […] NS3-NS5. The NS3 protein cleaves the HCV polyprotein to release the mature NS3, NS4A, NS4B, NS5A and NS5B proteins that are required for HCV replication. At the 3′ end of the replicon is the authentic 3′ NTR of HCV. The activity of the LUC reporter is directly proportional to HCV replication levels and positive-control antiviral compounds produce a reproducible antiviral response using the LUC endpoint.
The compounds were dissolved in DMSO at five half-log concentrations each, ranging from either 0.02 to 2.0 μM, 0.03 to 3 μM, […], or 1 to 100 μM. Subconfluent cultures of the ET line were plated out into 96 well plates dedicated for the analysis of cell numbers (cytotoxicity) or antiviral activity and the next day the compounds were added to the appropriate wells. The cells were processed 72 h later when the cells were still subconfluent. […] The activity of the LUC reporter is directly proportional to HCV RNA levels in the human cell line. The HCV-replicon assay was validated in parallel experiments using interferon-alpha-2b as a positive control.

Molecule	EC50 [1]	EC90 [1]	EC50 [2]	IC50 [3]	IC90 [3]
3-(ethoxy)-4-(gamma-hydroxymethylleucine)cyclosporin [W]	130 nM	510 nM	680 nM		
3-(isopropoxy)-4-(gamma-hydroxymethylleucine)cyclosporin [V]	360 nM	1200 nM	440 nM		
C/C=C/C[C@@H](C)[C@@H](O)[C@H]1C(=O)N[C@@H](CC)C(=O)N(C)C(OC)C(=O)N(C)[C@@H](CC(C)C)C(=O)N[C@@H](C(C)C)C(=O)N(C)[C@@H](CC(C)C)C(=O)N[C@@H](C)C(=O)N[C@H](C)C(=O)N(C)[C@@H](CC(C)C)C(=O)N(C)[C@@H](CC(C)C)C(=O)N(C)[C@@H](C(C)C)C(=O)N1C (some centres unmarked) [A, 3-methoxycyclosporin]		220 nM		2330 nM	> 3000 nM
C/C=C/C[C@@H](C)[C@@H](O)[C@H]1C(=O)N[C@@H](CC)C(=O)N(C)[C@H](OCCN)C(=O)N(C)[C@@H](CC(C)C)C(=O)N[C@@H](C(C)C)C(=O)N(C)[C@@H](CC(C)C)C(=O)N[C@@H](C)C(=O)N[C@H](C)C(=O)N(C)[C@@H](CC(C)C)C(=O)N(C)[C@@H](CC(C)C)C(=O)N(C)[C@@H](C(C)C)C(=O)N1C [Compound B, 3-(2-aminoethoxy)cyclosporin]	1180 nM	2720 nM		6310 nM	20300 nM
C/C=C/C[C@@H](C)[C@@H](O)[C@H]1C(=O)N[C@@H](CC)C(=O)N(C)[C@H](OCCN(C)C)C(=O)N(C)[C@@H](CC(C)C)C(=O)N[C@@H](C(C)C)C(=O)N(C)[C@@H](CC(C)C)C(=O)N[C@@H](C)C(=O)N[C@H](C)C(=O)N(C)[C@@H](CC(C)C)C(=O)N(C)[C@@H](CC(C)C)C(=O)N(C)[C@@H](C(C)C)C(=O)N1C [Compound C, 3-(2-N,N-dimethylaminoethoxy)cyclosporin]	180 nM	640 nM		> 3000 nM	> 3000 nM
CC=CCC(C)C(O)C1C(=O)NC(CC)C(=O)N(C)C(OCC(CC)CC)C(=O)N(C)C(CC(C)C)C(=O)NC(C(C)C)C(=O)N(C)C(CC(C)C)C(=O)NC(C)C(=O)NC(C)C(=O)N(C)C(CC(C)C)C(=O)N(C)C(CC(C)C)C(=O)N(C)C(C(C)C)C(=O)N1C (centres unmarked) [Compound E, 3-(2-ethylbutoxy)cyclosporin]				15600 nM	
C/C=C/C[C@@H](C)[C@@H](O)[C@H]1C(=O)N[C@@H](CC)C(=O)N(C)C(OCCNC)C(=O)N(C)[C@@H](CC(C)C)C(=O)N[C@@H](C(C)C)C(=O)N(C)[C@@H](CC(C)C)C(=O)N[C@@H](C)C(=O)N[C@H](C)C(=O)N(C)[C@@H](CC(C)C)C(=O)N(C)[C@@H](CC(C)C)C(=O)N(C)[C@@H](C(C)C)C(=O)N1C (some centres unmarked) [Compound I, 3-[2-(N-methylamino)ethoxy]cyclosporin]	1010 nM	1870 nM		2830 nM	17400 nM
C/C=C/C[C@@H](C)[C@@H](O)[C@H]1C(=O)N[C@@H](CC)C(=O)N(C)[C@H](SCCOC)C(=O)N(C)[C@@H](CC(C)(C)O)C(=O)N[C@@H](C(C)C)C(=O)N(C)[C@@H](CC(C)C)C(=O)N[C@@H](C)C(=O)N[C@H](C)C(=O)N(C)[C@@H](CC(C)C)C(=O)N(C)[C@@H](CC(C)C)C(=O)N(C)[C@@H](C(C)C)C(=O)N1C [Compound N, 3-(2-methoxyethylthio)-4-(gamma-hydroxymethylleucine)cyclosporin]	< 200 nM	< 200 nM	350 nM	> 20000 nM	> 20000 nM
C/C=C/C[C@@H](C)[C@@H](O)[C@H]1C(=O)N[C@@H](CC)C(=O)N(C)[C@H](OCC(C)(C)C)C(=O)N(C)[C@@H](CC(C)C)C(=O)N[C@@H](C(C)C)C(=O)N(C)[C@@H](CC(C)C)C(=O)N[C@@H](C)C(=O)N[C@H](C)C(=O)N(C)[C@@H](CC(C)C)C(=O)N(C)[C@@H](CC(C)C)C(=O)N(C)[C@@H](C(C)C)C(=O)N1C [F, 3-(2,2-dimethylpropoxy)cyclosporin]	17000 nM			> 20000 nM	
C/C=C/C[C@@H](C)[C@@H](O)[C@H]1C(=O)N[C@@H](CC)C(=O)N(C)C(OCCO)C(=O)N(C)[C@@H](CC(C)C)C(=O)N[C@@H](C(C)C)C(=O)N(C)[C@@H](CC(C)C)C(=O)N[C@@H](C)C(=O)N[C@H](C)C(=O)N(C)[C@@H](CC(C)C)C(=O)N(C)[C@@H](CC(C)C)C(=O)N(C)[C@@H](C(C)C)C(=O)N1C (some centres unmarked) [G, 3-(2-hydroxyethoxy)cyclosporin]	< 200 nM	570 nM		10300 nM	> 20000 nM
C/C=C/C[C@@H](C)[C@@H](O)[C@H]1C(=O)N[C@@H](CC)C(=O)N(C)C(OCCN(C)C(C)C)C(=O)N(C)[C@@H](CC(C)C)C(=O)N[C@@H](C(C)C)C(=O)N(C)[C@@H](CC(C)C)C(=O)N[C@@H](C)C(=O)N[C@H](C)C(=O)N(C)[C@@H](CC(C)C)C(=O)N(C)[C@@H](CC(C)C)C(=O)N(C)[C@@H](C(C)C)C(=O)N1C (some centres unmarked) [J, 3-[2-(N-methyl-N-isopropylamino)ethoxy]cyclosporin]	150 nM	530 nM		8200 nM	19600 nM
CC=CCC(C)C(O)C1C(=O)NC(CC)C(=O)N(C)C(OCCN2CCCCC2)C(=O)N(C)C(CC(C)C)C(=O)NC(C(C)C)C(=O)N(C)C(CC(C)C)C(=O)NC(C)C(=O)NC(C)C(=O)N(C)C(CC(C)C)C(=O)N(C)C(CC(C)C)C(=O)N(C)C(C(C)C)C(=O)N1C (centres unmarked) [K, 3-[2-(piperidin-1-yl)ethoxy]cyclosporin]	260 nM	590 nM		5500 nM	17800 nM
C/C=C/C[C@@H](C)[C@@H](O)[C@H]1C(=O)N[C@@H](CC)C(=O)N(C)C(OCC)C(=O)N(C)[C@@H](CC(C)C)C(=O)N[C@@H](C(C)C)C(=O)N(C)[C@@H](CC(C)C)C(=O)N[C@@H](C)C(=O)N[C@H](C)C(=O)N(C)[C@@H](CC(C)C)C(=O)N(C)[C@@H](CC(C)C)C(=O)N(C)[C@@H](C(C)C)C(=O)N1C (some centres unmarked) [M, 3-ethoxycyclosporin]	3350 nM	6110 nM		> 20000 nM	> 20000 nM
CC=CCC(C)C(O)C1C(=O)NC(CC)C(=O)N(C)C(SCCN(C)C)C(=O)N(C)C(CC(C)(C)O)C(=O)NC(C(C)C)C(=O)N(C)C(CC(C)C)C(=O)NC(C)C(=O)NC(C)C(=O)N(C)C(CC(C)C)C(=O)N(C)C(CC(C)C)C(=O)N(C)C(C(C)C)C(=O)N1C [MeSO2, [(R)-2-(N,N-dimethylamino)ethylthio-Sar]3[4′-hydroxy-MeLeu]4 cyclosporin]	160 nM	500 nM		> 2000 nM	> 2000 nM
CC=CCC(C)C(O)C1C(=O)NC(CC)C(=O)N(C)C(SCCN(C)C)C(=O)N(C)C(CC(C)(C)O)C(=O)NC(C(C)C)C(=O)N(C)C(CC(C)C)C(=O)NC(C)C(=O)NC(C)C(=O)N(C)C(CC(C)C)C(=O)N(C)C(CC(C)C)C(=O)N(C)C(C(C)C)C(=O)N1C [acetate, [(R)-2-(N,N-dimethylamino)ethylthio-Sar]3[4′-hydroxy-MeLeu]4 cyclosporin]		300 nM		> 2000 nM	> 2000 nM
CC=CCC(C)C(O)C1C(=O)NC(CC)C(=O)N(C)C(SCCN(C)C)C(=O)N(C)C(CC(C)(C)O)C(=O)NC(C(C)C)C(=O)N(C)C(CC(C)C)C(=O)NC(C)C(=O)NC(C)C(=O)N(C)C(CC(C)C)C(=O)N(C)C(CC(C)C)C(=O)N(C)C(C(C)C)C(=O)N1C [hydrochloride, [(R)-2-(N,N-dimethylamino)ethylthio-Sar]3[4′-hydroxy-MeLeu]4 cyclosporin]	110 nM	380 nM		> 2000 nM	> 2000 nM
CC=CCC(C)C(O)C1C(=O)NC(CC)C(=O)N(C)C(SCCN(C)C)C(=O)N(C)C(CC(C)(C)O)C(=O)NC(C(C)C)C(=O)N(C)C(CC(C)C)C(=O)NC(C)C(=O)NC(C)C(=O)N(C)C(CC(C)C)C(=O)N(C)C(CC(C)C)C(=O)N(C)C(C(C)C)C(=O)N1C [phosphate, [(R)-2-(N,N-dimethylamino)ethylthio-Sar]3[4′-hydroxy-MeLeu]4 cyclosporin]	130 nM	470 nM		> 2000 nM	> 2000 nM
[(R)-2-(N,N-dimethylamino)ethylthio-Sar]3[4′-hydroxy-MeLeu]4 cyclosporin [citrate]	110 nM	410 nM		> 2000 nM	> 2000 nM
[(R)-2-(N,N-dimethylamino)ethylthio-Sar]3[4′-hydroxy-MeLeu]4 cyclosporin [propionate]	100 nM	320 nM		> 2000 nM	> 2000 nM
